Laboratory results as given in PMC9181795, “Ibuprofen Favors Binding of Amyloid-β Peptide to Its Depot, Serum Albumin” (International Journal of Molecular Sciences, 2022).
Read-outs that look alike come from different tables or passages of the source.

Experiments:
Aβ40(A21G) = assay: ThT fluorescence assay, Aβ40(A21G) fibrillation; type: biochemical, human; settings: 20 µM IBU, 20 µM Aβ40(A21G), no HSA, 30 °C, pH 7.4
Experimental: ThT fluorescence emission measurements were carried out using a BioTek Synergy H1 multimode microplate reader and Greiner Bio-One non-binding microplates #781906 mainly as described in ref. [11]. […] ThT fluorescence was excited at 440 nm and emission at 485 nm was measured for 190 h every 30 min, with orbital shaking prior to each measurement. […] The lag time, tlag, is calculated as (t0 − 2/kapp).

[1] = design: method as in doi:10.3109/03639048309039887, PMID 10714613; settings: pH values above 7; ref [22],[23]; cited from earlier work
[2] = design: method as in PMID 4202799; settings: at therapeutic levels; ref [24]; cited from earlier work
mouse models of AD = tested on: mouse models of AD; design: method as in 6 sources, ref [28]–[35] = [28]; PMID 15817521; doi:10.1093/brain/awh452; 28. Heneka M.T. Sastre M. Dumitrescu-Ozimek L. Hanke A. Dewachter I. Kuiperi C. O’Banion K. Klockgether T. Van Leuven F. Landreth G.E. Acute treatment with the PPARgamma agonist pioglitazone and ibupr || [29]; PMID 18374906; doi:10.1016/j.brainres.2008.01.095; 29. McKee A.C. Carreras I. Hossain L. Ryu H. Klein W.L. Oddo S. LaFerla F.M. Jenkins B.G. Kowall N.W. Dedeoglu A. Ibuprofen reduces Abeta, hyperphosphorylated tau and memory deficits in Alzheimer mice || [30]; PMID 19679126; doi:10.1016/j.expneurol.2009.07.032; 30. Choi J.K. Jenkins B.G. Carreras I. Kaymakcalan S. Cormier K. Kowall N.W. Dedeoglu A. Anti-inflammatory treatment in AD mice protects against neuronal pathology Exp. Neurol. 2010 223 377 384 10.101 || [31]; PMID 27190010; doi:10.1093/brain/aww117; 31. Woodling N.S. Colas D. Wang Q. Minhas P. Panchal M. Liang X. Mhatre S.D. Brown H. Ko N. Zagol-Ikapitte I. Cyclooxygenase inhibition targets neurons to prevent early behavioural decline in Alzheime || [32]; PMID 12930788; doi:10.1523/JNEUROSCI.23-20-07504.2003; 32. Yan Q. Zhang J. Liu H. Babu-Khan S. Vassar R. Biere A.L. Citron M. Landreth G. Anti-inflammatory drug therapy alters beta-amyloid processing and deposition in an animal model of Alzheimer’s diseas ||| ref [28],[29],[30],[32],[33],[34],[35] = [28]; PMID 15817521; doi:10.1093/brain/awh452; 28. Heneka M.T. Sastre M. Dumitrescu-Ozimek L. Hanke A. Dewachter I. Kuiperi C. O’Banion K. Klockgether T. Van Leuven F. Landreth G.E. Acute treatment with the PPARgamma agonist pioglitazone and ibupr || [29]; PMID 18374906; doi:10.1016/j.brainres.2008.01.095; 29. McKee A.C. Carreras I. Hossain L. Ryu H. Klein W.L. Oddo S. LaFerla F.M. Jenkins B.G. Kowall N.W. Dedeoglu A. Ibuprofen reduces Abeta, hyperphosphorylated tau and memory deficits in Alzheimer mice || [30]; PMID 19679126; doi:10.1016/j.expneurol.2009.07.032; 30. Choi J.K. Jenkins B.G. Carreras I. Kaymakcalan S. Cormier K. Kowall N.W. Dedeoglu A. Anti-inflammatory treatment in AD mice protects against neuronal pathology Exp. Neurol. 2010 223 377 384 10.101 || [32]; PMID 12930788; doi:10.1523/JNEUROSCI.23-20-07504.2003; 32. Yan Q. Zhang J. Liu H. Babu-Khan S. Vassar R. Biere A.L. Citron M. Landreth G. Anti-inflammatory drug therapy alters beta-amyloid processing and deposition in an animal model of Alzheimer’s diseas || [33]; PMID 10908610; doi:10.1523/JNEUROSCI.20-15-05709.2000; 33. Lim G.P. Yang F. Chu T. Chen P. Beech W. Teter B. Tran T. Ubeda O. Ashe K.H. Frautschy S.A. Ibuprofen suppresses plaque pathology and inflammation in a mouse model for Alzheimer’s disease J. Neuro ||| ref [28] = [28]; PMID 15817521; doi:10.1093/brain/awh452; 28. Heneka M.T. Sastre M. Dumitrescu-Ozimek L. Hanke A. Dewachter I. Kuiperi C. O’Banion K. Klockgether T. Van Leuven F. Landreth G.E. Acute treatment with the PPARgamma agonist pioglitazone and ibupr ||| ref [32] = [32]; PMID 12930788; doi:10.1523/JNEUROSCI.23-20-07504.2003; 32. Yan Q. Zhang J. Liu H. Babu-Khan S. Vassar R. Biere A.L. Citron M. Landreth G. Anti-inflammatory drug therapy alters beta-amyloid processing and deposition in an animal model of Alzheimer’s diseas ||| ref [33],[34] = [33]; PMID 10908610; doi:10.1523/JNEUROSCI.20-15-05709.2000; 33. Lim G.P. Yang F. Chu T. Chen P. Beech W. Teter B. Tran T. Ubeda O. Ashe K.H. Frautschy S.A. Ibuprofen suppresses plaque pathology and inflammation in a mouse model for Alzheimer’s disease J. Neuro || [34]; PMID 15688088; doi:10.1038/sj.npp.1300668; 34. Morihara T. Teter B. Yang F. Lim G.P. Boudinot S. Boudinot F.D. Frautschy S.A. Cole G.M. Ibuprofen suppresses interleukin-1beta induction of pro-amyloidogenic alpha1-antichymotrypsin to ameliorate ||| ...; settings: cited from earlier work
HSA = settings: cited from earlier work

SMILES: CC(C)Cc1ccc(C(C)C(=O)O)cc1 (centres unmarked) [IBU, 2-[4-(2-methylpropyl)phenyl]propanoic acid]
- suppression of fibrillation by IBU alone (Aβ40(A21G)): does not induce statistically significant suppression of the fibrillation process
- water solubility [1]: 100 to 1000 mM
- bound to blood plasma proteins [2]: 99%
- neuroprotective effects of IBU intake (mouse models of AD; mouse models of AD, ref [28]–[35]): suppression of the inflammatory processes, reduction in the Aβ sprand tau protein depositions, and lowering of the cognitive and memory deficits
- mechanism ascribed to reduced Aβ deposition (mouse models of AD; ref [28]): downregulation of β-secretase 1 and COX-2
- mechanism ascribed to reduced Aβ deposition (mouse models of AD; ref [32]): reduction in Aβ42 production
- mechanism ascribed to reduced Aβ deposition (mouse models of AD; ref [33],[34]): inhibition of interleukin-1β and its downstream target α1-antichymotrypsin
- mechanism ascribed to reduced Aβ deposition (mouse models of AD; ref [35]): attenuation of NADPH oxidase activation and reactive oxygen species production
- brain deposition of Aβ upon treatment with IBU (mouse models of AD; several mouse AD models, ref [28],[29],[30],[32],[33],[34],[35]): reduction in brain deposition of Aβ
- effect of IBU on HSA affinity to heme (HSA; ref [74],[75]): allosterically affect HSA affinity to heme
- effect of IBU binding on HSA affinity to lorazepam (HSA; ref [76]): enhanced its affinity to lorazepam
